Results as given in the supplement of paper PMC13380429.

What was measured:
Settings in all cases: 72 h
[1] = system: Caco-2; assay: drug sensitivity score (DSS) for viability; higher = more toxic; extreme values may be limits of the assay
[2] = system: Vero E6; assay: as above
[3] = system: Calu-3; assay: as above
[4] = system: U2OS; assay: as above
[5] = system: HepG2; assay: as above
[6] = system: Caco-2; assay: cell viability relative to DMSO; higher = less toxic
[7] = system: Vero E6; assay: as above
[8] = system: Calu-3; assay: as above
[9] = system: U2OS; assay: as above
[10] = system: HepG2; assay: as above
[11] = system: Caco-2; assay: relative viability EC50 (midpoint between 100% and the lowest measured viability); higher = less toxic
[12] = system: Vero E6; assay: as above
[13] = system: Calu-3; assay: as above
[14] = system: U2OS; assay: as above
[15] = system: HepG2; assay: as above

Structure (SMILES)	drug sensitivity score [1]	drug sensitivity score [2]	drug sensitivity score [3]	drug sensitivity score [4]	drug sensitivity score [5]	cell viability ([6]; 1 nM)	cell viability ([6]; 10 nM)	cell viability ([6]; 100 nM)	cell viability ([6]; 1000 nM)	cell viability ([6]; 10000 nM)	cell viability ([7]; 1 nM)	cell viability ([7]; 10 nM)	cell viability ([7]; 100 nM)	cell viability ([7]; 1000 nM)	cell viability ([7]; 10000 nM)	cell viability ([8]; 1 nM)	cell viability ([8]; 10 nM)	cell viability ([8]; 100 nM)	cell viability ([8]; 1000 nM)	cell viability ([8]; 10000 nM)	cell viability ([9]; 1 nM)	cell viability ([9]; 10 nM)	cell viability ([9]; 100 nM)	cell viability ([9]; 1000 nM)	cell viability ([9]; 10000 nM)	cell viability ([10]; 1 nM)	cell viability ([10]; 10 nM)	cell viability ([10]; 100 nM)	cell viability ([10]; 1000 nM)	cell viability ([10]; 10000 nM)	relative viability EC50 [11]	relative viability EC50 [12]	relative viability EC50 [13]	relative viability EC50 [14]	relative viability EC50 [15]
N=C(N)NC(=N)NCCc1ccccc1 [phenformin]	0.5	0	0	0	0.3	86.7%	101%	93.7%	91.8%	81.5%	98.8%	95.3%	107%	98.4%	96.4%	90.2%	100%	96.5%	98.8%	102%	95.9%	97.6%	93.8%	98.8%	97.1%	106%	101%	102%	98%	85.8%	> 10 µM	> 10 µM	> 10 µM	> 10 µM	> 10 µM
CNC[C@H](O)c1cccc(O)c1 [phenylephrine]	0	0	0	0	0	99.2%	91%	96.4%	92.4%	99.7%	96.6%	99.7%	95.6%	93.5%	102%	103%	92.5%	95.7%	98.9%	97.5%	98.9%	96.1%	98.9%	102%	101%	98.7%	101%	99.1%	93.5%	111%	> 10 µM	> 10 µM	> 10 µM	> 10 µM	> 10 µM
O=C(Nc1cccc2c(=O)cc(-c3nnn[nH]3)oc12)c1ccc(OCCCCc2ccccc2)cc1 [pranlukast]	0	0	0	0	0	94.1%	91.3%	94.6%	99.1%	86.7%	99.6%	94.4%	93.8%	97.1%	96%	102%	111%	93.1%	96.8%	88.9%	96.7%	97.2%	94.3%	98.6%	95.2%	95.7%	95.6%	104%	101%	99.9%	> 10 µM	> 10 µM	> 10 µM	> 10 µM	> 10 µM
CC(=O)[C@H]1CC[C@H]2[C@@H]3CC=C4C[C@@H](OC(=O)CCC(=O)O)CC[C@]4(C)[C@H]3CC[C@]12C [pregnenolone-succinate]	0.3	0	0	0	0	90.5%	97.4%	110%	94.2%	87.7%	94.1%	96.8%	88.7%	97.3%	107%	89.8%	95.1%	93.7%	94.1%	113%	101%	94.7%	100%	97.9%	99.9%	93.3%	93.8%	94.4%	95%	97%	> 10 µM	> 10 µM	> 10 µM	> 10 µM	> 10 µM
CNNCc1ccc(C(=O)NC(C)C)cc1 [procarbazine]	0	0	0	0	0	98.2%	105%	96.2%	101%	87.4%	103%	93.2%	102%	89%	102%	92.2%	99.3%	97.4%	102%	90.8%	96%	103%	96.4%	98.7%	106%	103%	87.7%	93.3%	112%	110%	> 10 µM	> 10 µM	> 10 µM	> 10 µM	> 10 µM
Cc1cc(/C=C/c2ccc3cc(N(C)C)ccc3[n+]2C)c(C)n1-c1ccccc1 [pyrvinium-pamoate]	11.1	8.4	9.9	10.6	11.9	107%	93%	102%	46.9%	13.3%	106%	97.4%	100%	78%	10.6%	105%	101%	99.3%	63%	9.3%	107%	106%	103%	60%	3.8%	104%	110%	98%	42%	9.6%	0.834 µM	1.56 µM	1.16 µM	1.15 µM	0.745 µM
C#CCN[C@@H]1CCc2ccccc21 [rasagiline]	0	0	0	0	0	97%	98%	91.5%	99%	94.2%	106%	104%	102%	104%	97.1%	87%	96.3%	100%	97.3%	99.6%	99.8%	105%	97.5%	106%	97.2%	103%	117%	110%	104%	99.6%	> 10 µM	> 10 µM	> 10 µM	> 10 µM	> 10 µM
